# Values quoted from earlier work as cited in article PMC12479633, “A Phase IIa, Single-Blind, Placebo-Controlled, Parallel-Group Study to Assess Safety, Tolerability, and Pharmacokinetics/Pharmacodynamics of Brensocatib in Adults with Cystic Fibrosis” (Clinical Pharmacokinetics, 2025).
# How the values were obtained:
# [1] = parameters: method as in PMID 39574348; details: single dose, cited from earlier work
# [2] = parameters: method as in PMID 40267423; details: NCFBE, ASPEN, cited from earlier work
structure (smiles),measurement,setting,value
Cn1c(=O)oc2ccc(-c3ccc(C[C@@H](C#N)NC(=O)[C@@H]4CNCCCO4)cc3)cc21 [Brensocatib],tolerability,[1]; adults with varying degrees of renal impairment,well tolerated
same,effect of renal impairment on brensocatib elimination and exposure,[1],not significantly affected
same,annualized rate of adjudicated pulmonary exacerbations compared with placebo,[2]; 10 mg or 25 mg QD,significantly reduced
same,lung function decline (FEV1) over 52 weeks compared with placebo,[2]; 25 mg,significantly lower
